Measurements reported in article PMC4601023, “Novel anticancer agent, SQAP, binds to focal adhesion kinase and modulates its activity” (Scientific Reports, 2015).

Legend:
[1] = system: Akt phosphorylation at S473 in A549; test: Akt phosphorylation in A549, Western blotting; format: cell-based, human; settings: A549, fibronectin, 1 h treatment
Procedure: Fibronectin is a glycoprotein located in the extracellular matrix that binds to integrins. […] A549 lung cancer cells have been used before for studying cell migration because of their metastatic model potential. A549 cells are also one of the tumor cell lines sensitive to SQMG[9]. Therefore, we studied the phosphorylation of FAK in A549 cells (Fig. 5C,D). SQAP could inhibit the phosphorylation of FAK at Y397 and Y925 after 1 h treatment in a dose dependent manner. […] We also examined paxillin and Akt phosphorylation in A549 as downstream targets of FAK. […] We hypothesize that SQAP diminish on Akt phosphorylation being more readily in A549 cancer cells than in HUVEC endothelial cells might be due to a higher Akt basal activity on cancer cells.
(§1) Cells were harvested and solubilized in RIPA buffer (20 mM Tris-HCl, pH 7.5, 1% Sodium deoxycholate, 150 mM NaCl, 5 mM EDTA, 1% Triton X-100, 0.1% SDS, 0.1%, 1 mM PMSF, 1 mM vanadate and 1 μg/mL leupeptin). Protein quantification was determined using the DC protein assay kit (Bio-Rad, Hercules, CA, USA). A total of 15 μg of each protein sample were separated by SDS–PAGE gels and blotted onto polyvinylidene difluoride membranes (Merck, Kenilworth, NJ, US). […]

VEGF = VEGF (Homo sapiens, UniProt P15692); test: SPR analysis of SQAP-VEGF interaction; format: binding; settings: data not shown
Chain of VEGF (P15692 whole entry, species assumed, the tested form may be a part): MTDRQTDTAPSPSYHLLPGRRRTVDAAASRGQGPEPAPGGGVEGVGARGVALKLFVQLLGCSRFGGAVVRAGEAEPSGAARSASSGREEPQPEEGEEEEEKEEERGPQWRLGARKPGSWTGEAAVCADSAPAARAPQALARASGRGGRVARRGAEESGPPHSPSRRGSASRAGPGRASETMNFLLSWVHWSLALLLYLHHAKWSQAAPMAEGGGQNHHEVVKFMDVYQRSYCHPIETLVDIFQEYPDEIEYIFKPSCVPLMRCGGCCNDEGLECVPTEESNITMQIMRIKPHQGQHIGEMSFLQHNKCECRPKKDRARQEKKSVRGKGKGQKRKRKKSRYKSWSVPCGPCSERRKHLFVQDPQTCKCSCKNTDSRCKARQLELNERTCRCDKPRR
From the text: The phosphorylation of FAK in response to VEGF plays an important role in the regulation of endothelial cell migration during angiogenesis. Therefore we hypothesized that SQAP activity could potentially be mediated through binding to FAK. […] In this region, FAK interacts with paxillin through FAT domain and becomes autophosphorylated on Y397[29][30]. Y397 is an autophosphorylation site which is crucial for FAK activity and has been related to apoptosis and tumor growth. FAK is also phosphorylated at Y925, leading to the regulation of adhesion turnover and cell motility. Thus we chose to study the FAK phosphorylation on Y397 and Y925 residues. Initially, we examined whether SQAP affected phosphorylation of FAK in HUVEC cells stimulated with VEGF in the presence or absence of SQAP. […] Since SQMG was previously reported to bind to VEGF[34], we could not rule out the possibility of a binding between SQAP and VEGF so we analyzed this interaction by SPR. […] Therefore, we investigated whether SQAP could inhibit FAK phosphorylation independently of VEGF. We analyzed FAK phosphorylation in the absence of VEGF and observed that SQAP inhibited the phosphorylation of FAK signal within 1 h in a VEGF independent manner (Fig. 5B). Additionally, we treated HUVEC with VEGF in the presence of SQMG and SQP.

A549 cells = test: Wound healing assay, A549; format: cell-based, human; settings: A549, 25 h, 1% FBS and fibronectin 10 μg/mL; control 46%
Procedure: Figure 6 SQAP inhibits cell migration in vitro. (A) HUVEC cells were seeded and grown to 100% confluence in 60-mm diameter dishes. After generating a single scratch in the monolayer, the cells were cultured for 11 h in medium containing 1% FBS and VEGF (50 ng/mL) in the presence or absence of SQAP. Photographs were taken immediately after 11 h. (B) The change in wound width was measured as described in the Materials and Methods. (C) A549 cells were seeded and grown to 100% confluence in 60-mm diameter dishes. After generating a single scratch in the monolayer, the cells cultured for the 25 h in media containing 1% FBS and fibronectin (10 μg/ml) treated with SQAP or vehicle. Photographs were collected immediately after wounding and after 25 h. (D) The change in wound width was measured as described in the Materials and Methods. Cell migration was additionally examined in 96 well plates. HUVEC (E) and A549 cells (F) were seeded and grown into confluence overnight. After removing the stoppers, the live cells were stained with CellTracker^TM Green and incubated for the indicated time. The fluorescent emission signal was obtained with a plate reader. […]
Wound healing assay was analyzed by microscope imaging. […] Wound diameters in the images were measured and percentage of wound size was calculated as follows: [wound diameter at 11 or 25 h/wound diameter at 0 h] x 100.

[2] = system: Akt phosphorylation at S473 in HUVEC; test: Akt phosphorylation in HUVEC, Western blotting; format: cell-based, human; settings: treated for 21 h, 10 µM
From the text: Furthermore, we looked at FAK signaling pathway to validate our results. Paxillin binds to FAK 919–938 residues which is a sequence contained within the region where SQAP is predicted to bind. Binding between paxillin and FAK results in paxillin phosphorylation at Y118[35][36]. Thus, we examined paxillin phosphorylation. […] Additionally, we studied Akt phosphorylation at S473 on account of FAK is a known factor in control of Akt activity. We observed that Akt phosphorylation was diminished when treated with SQAP or SQMG for 21 h (see Supplementary Fig. S3).
as §1, with “US). After blocking for 1 h with Blocking-One (Nacalai Tesque, Kyoto, Japan), proteins were detected by incubating the membranes with the primary antibody at 4 °C overnight (anti-Y397 2:2000, anti-Y925 5:2000 and anti-FAK 0.5:2000) followed by incubation with horseradish peroxidase-conjugated secondary antibodies at room temperature for 1 h (anti-mouse 0.5:2000 and anti-rabbit 0.4:2000).” for “US).”

CCCCCCCCCCCCCCCCCC(=O)OCCCO[C@H]1O[C@H](CS(=O)(=O)O)[C@@H](O)[C@H](O)[C@H]1O [SQAP, sulfoquynovosylacylpropanediol] was tested, and the “Akt phosphorylation at S473” value [1] was “clearly downregulated”, the “binding to VEGF (SPR)” value (VEGF) was “did bind” and the wound size (A549 cells) was 68%. The “Akt phosphorylation at S473” value [2] was “diminished”.
